Data reported in ChEMBL document CHEMBL5608247, “Development of a First-in-Class DNMT1/HDAC Inhibitor with Improved Therapeutic Potential and Potentiated Antitumor Immunity” (J Med Chem, 2024).
Activity calls are given as the source filed them. The calls are words filed in the database; no cut-off is given here.

Assays:
[1] = biological target: T1, DNA (cytosine-5)-methyltransferase 1 (Homo sapiens, UniProt P26358); assay: Inhibition of DNMT1 in human MV4-11 cells assessed as ABT1 promoter methylation at 300 nM incubated for 3 days by Bisulfite Sequencing PCR analysis (reference value: 99.3 %); type: cell-based; design: scale not given: the % may be the effect or the level left; settings: time 3.0 day
T1 sequence (P26358 whole entry): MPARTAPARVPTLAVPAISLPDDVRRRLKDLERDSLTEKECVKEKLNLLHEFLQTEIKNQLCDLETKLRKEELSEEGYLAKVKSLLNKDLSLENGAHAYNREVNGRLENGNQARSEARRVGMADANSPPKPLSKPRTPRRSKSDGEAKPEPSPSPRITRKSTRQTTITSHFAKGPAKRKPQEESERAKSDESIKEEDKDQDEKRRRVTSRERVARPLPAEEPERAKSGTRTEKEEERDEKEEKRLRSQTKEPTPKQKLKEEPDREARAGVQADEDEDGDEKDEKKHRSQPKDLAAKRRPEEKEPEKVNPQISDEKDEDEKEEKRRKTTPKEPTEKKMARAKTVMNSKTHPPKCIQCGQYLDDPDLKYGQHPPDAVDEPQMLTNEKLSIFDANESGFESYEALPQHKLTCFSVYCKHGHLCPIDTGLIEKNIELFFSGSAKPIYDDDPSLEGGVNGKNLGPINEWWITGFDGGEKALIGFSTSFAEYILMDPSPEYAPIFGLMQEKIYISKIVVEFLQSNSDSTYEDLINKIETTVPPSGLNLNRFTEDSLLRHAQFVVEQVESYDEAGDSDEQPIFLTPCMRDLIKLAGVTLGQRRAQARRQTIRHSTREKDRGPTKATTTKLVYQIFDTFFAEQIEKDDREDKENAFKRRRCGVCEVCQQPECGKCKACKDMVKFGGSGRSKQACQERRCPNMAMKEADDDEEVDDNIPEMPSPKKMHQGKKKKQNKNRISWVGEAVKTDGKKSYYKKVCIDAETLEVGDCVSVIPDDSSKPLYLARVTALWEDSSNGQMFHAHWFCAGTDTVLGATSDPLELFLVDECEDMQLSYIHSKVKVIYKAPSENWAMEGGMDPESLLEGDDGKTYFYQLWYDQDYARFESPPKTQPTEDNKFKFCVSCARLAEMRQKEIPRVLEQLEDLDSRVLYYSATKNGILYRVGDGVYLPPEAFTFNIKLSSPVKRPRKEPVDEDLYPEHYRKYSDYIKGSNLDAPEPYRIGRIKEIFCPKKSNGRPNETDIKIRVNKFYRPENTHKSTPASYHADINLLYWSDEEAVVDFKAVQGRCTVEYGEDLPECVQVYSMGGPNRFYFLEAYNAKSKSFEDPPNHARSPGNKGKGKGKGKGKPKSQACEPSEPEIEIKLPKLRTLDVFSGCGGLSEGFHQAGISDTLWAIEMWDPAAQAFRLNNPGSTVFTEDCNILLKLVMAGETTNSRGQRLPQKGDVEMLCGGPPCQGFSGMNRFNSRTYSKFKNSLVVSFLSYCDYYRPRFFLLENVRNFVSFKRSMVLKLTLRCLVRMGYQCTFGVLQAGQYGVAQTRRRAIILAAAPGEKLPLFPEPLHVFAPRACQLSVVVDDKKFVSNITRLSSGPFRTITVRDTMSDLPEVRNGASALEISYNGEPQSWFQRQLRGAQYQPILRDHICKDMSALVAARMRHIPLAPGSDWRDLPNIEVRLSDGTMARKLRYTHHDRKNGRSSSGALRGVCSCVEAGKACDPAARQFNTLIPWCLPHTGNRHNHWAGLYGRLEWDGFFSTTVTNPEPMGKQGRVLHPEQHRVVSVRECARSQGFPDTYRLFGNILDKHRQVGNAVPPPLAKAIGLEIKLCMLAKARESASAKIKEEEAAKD

[2] = tested on: MV4-11; assay: Antitumor activity against human MV4-11 cells xenografted in BALB/c nude mouse at 30 mg/kg, ip qd for 27 days in presence of SAHA relative to control; type: functional; settings: MV4-11, 648 h, time 27 day, read-out: TGI
[3] = tested on: MC-38; assay: Immunomodulatory activity in mouse MC38 cells allografted in mouse assessed as accumulation of T cells at 30 mg/kg, ip qd in presence of SAHA; type: functional, organism-based
[4] = biological target: T1, DNA (cytosine-5)-methyltransferase 1; assay: Inhibition of DNMT1 in human MV4-11 cells at 1 uM incubated for 6 hrs in presence of CQ by Western blot analysis; type: cell-based
[5] = tested on: MC-38; assay: Upregulation of IAPEz mRNA level in mouse MC38 cells at 1 to 3 uM incubated for 3 days in presence of SAHA by qRT-PCR analysis; type: functional, cell-based; settings: dose 1-3 µM, time 3.0 day
[6] = tested on: MV4-11; assay: Downregulation of MYC expression in human MV4-11 cells at 100 nM incubated for 2 days in presence of SAHA by RNA-Seq analysis; type: functional, cell-based; settings: time 2.0 day
[7] = biological target: Histone deacetylase (Homo sapiens) (UniProt Q13547+O15379+Q9UBN7+Q92769+Q9UQL6+Q8WUI4+Q9BY41+Q96DB2+P56524+Q9UKV0+Q969S8); assay: Inhibition of HDAC in human MV4-11 cells at 100 nM incubated for 2 days in presence of SAHA by RNA-Seq analysis; type: cell-based; settings: time 2.0 day
[8] = tested on: MC-38; assay: Immunomodulatory activity in mouse MC38 cells allografted in mouse assessed as inhibition of pro-tumor M2 polarization at 30 mg/kg, ip qd in presence of SAHA; type: functional, organism-based
[9] = tested on: MC-38; assay: Immunomodulatory activity in mouse MC38 cells allografted in mouse assessed as accumulation of NKT cells at 30 mg/kg, ip qd in presence of SAHA; type: functional, organism-based
[10] = tested on: MV4-11; assay: Inhibition of cell viability in human MV4-11 cells incubated for 4 days in presence of SAHA by CCK8 assay; type: functional, cell-based; settings: MV4-11, 96 h
[11] = tested on: MV4-11; assay: Antiproliferative activity against human MV4-11 cells incubated for 96 hrs by CCK8 assay; type: functional, cell-based; settings: MV4-11, 96 h
[12] = tested on: Kasumi 1; assay: Inhibition of cell viability in human Kasumi 1 cells incubated for 4 days in presence of SAHA by CCK8 assay; type: functional, cell-based; settings: Kasumi 1, 96 h
[13] = tested on: MC-38; assay: Upregulation of Oas2 mRNA level in mouse MC38 cells at 1 to 3 uM incubated for 3 days in presence of SAHA by qRT-PCR analysis; type: functional, cell-based; settings: dose 1-3 µM, time 3.0 day
[14] = tested on: MC-38; assay: Antitumor activity against mouse MC38 cells allografted in immunodeficient BALB/c nude mouse at 30 mg/kg, ip qd for 15 days in presence of SAHA relative to control; type: functional; settings: MC-38, 360 h, time 15 day, read-out: TGI
[15] = tested on: MV4-11; assay: Downregulation of GPR183 expression in human MV4-11 cells at 100 nM incubated for 2 days in presence of SAHA by RNA-Seq analysis; type: functional, cell-based; settings: time 2.0 day
[16] = tested on: MV4-11; assay: Upregulation of S100A16 expression in human MV4-11 cells at 100 nM incubated for 2 days in presence of SAHA by RNA-Seq analysis; type: functional, cell-based; settings: time 2.0 day
[17] = tested on: MV4-11; assay: Downregulation of GLIS2 expression in human MV4-11 cells at 100 nM incubated for 2 days in presence of SAHA by RNA-Seq analysis; type: functional, cell-based; settings: time 2.0 day
[18] = Toxicity in BALB/c nude mouse xenografted with human MV4-11 cells assessed as body weight loss at 45 mg/kg, ip qd treated for 19 days; type: organism-based; settings: in vivo, 456 h, time 19 day
[19] = biological target: T1, DNA (cytosine-5)-methyltransferase 1; assay: Synergistic inhibition of DNMT1 in human MV4-11 cells at 100 nM incubated for 2 days in presence of SAHA by RNA-Seq analysis; type: cell-based; settings: time 2.0 day
[20] = tested on: MC-38; assay: Immunomodulatory activity in mouse MC38 cells allografted in mouse assessed as increase in IFN-gamma-positive cells at 30 mg/kg, ip qd in presence of SAHA; type: functional, organism-based
[21] = tested on: HL-60; assay: Inhibition of cell viability in human HL-60 cells incubated for 4 days in presence of SAHA by CCK8 assay; type: functional, cell-based; settings: HL-60, 96 h
[22] = tested on: MV4-11; assay: Upregulation of BLK expression in human MV4-11 cells at 100 nM incubated for 2 days in presence of SAHA by RNA-Seq analysis; type: functional, cell-based; settings: time 2.0 day
[23] = Toxicity in BALB/c nude mouse xenografted with human MV4-11 cells assessed as body weight loss at 30 mg/kg, ip qd for 27 days in presence of SAHA; type: organism-based; settings: in vivo, 648 h, time 27 day
[24] = tested on: MV4-11; assay: Downregulation of FOXH1 expression in human MV4-11 cells at 100 nM incubated for 2 days in presence of SAHA by RNA-Seq analysis; type: functional, cell-based; settings: time 2.0 day
[25] = Inhibition of cell viability in human HSPC cells incubated for 4 days in presence of SAHA by CCK8 assay; type: toxicity, cell-based
[26] = Toxicity in immunodeficient BALB/c nude mouse allografted with mouse MC38 cells assessed as drug tolerance at 30 mg/kg, ip qd for 15 days in presence of SAHA; type: organism-based, MC-38; settings: in vivo, 360 h, time 15 day
[27] = biological target: T1, DNA (cytosine-5)-methyltransferase 1; assay: Inhibition of DNMT1 in human HL-60 cells at 1 uM incubated for 6 hrs in presence of MG132 by Western blot analysis; type: cell-based
[28] = biological target: T1, DNA (cytosine-5)-methyltransferase 1; assay: Inhibition of DNMT1 in human MV4-11 cells at 1 uM incubated for 6 hrs in presence of Z-VAD-FMK by Western blot analysis; type: cell-based
[29] = biological target: T1, DNA (cytosine-5)-methyltransferase 1; assay: Inhibition of DNMT1 in human HL-60 cells at 1 uM incubated for 6 hrs in presence of Z-VAD-FMK by Western blot analysis; type: cell-based
[30] = tested on: MC-38; assay: Upregulation of Isg15 mRNA level in mouse MC38 cells at 1 to 3 uM incubated for 3 days in presence of SAHA by qRT-PCR analysis; type: functional, cell-based; settings: dose 1-3 µM, time 3.0 day
[31] = tested on: MV4-11; assay: Antitumor activity against human MV4-11 cells xenografted in BALB/c nude mouse at 45 mg/kg, ip qd treated for 19 days relative to control; type: functional; settings: MV4-11, 456 h, time 19 day, read-out: TGI
[32] = tested on: MC-38; assay: Immunomodulatory activity in mouse MC38 cells allografted in mouse assessed as polarization of macrophages towards tumor -suppressing M1 phenotype at 30 mg/kg, ip qd in presence of SAHA; type: functional, organism-based
[33] = biological target: T1, DNA (cytosine-5)-methyltransferase 1; assay: Inhibition of DNMT1 in human HL-60 cells at 1 uM incubated for 6 hrs in presence of CQ by Western blot analysis; type: cell-based
[34] = tested on: MV4-11; assay: Upregulation of p57 expression in human MV4-11 cells at 100 nM incubated for 2 days in presence of SAHA by RNA-Seq analysis; type: functional, cell-based; settings: time 2.0 day
[35] = biological target: T1, DNA (cytosine-5)-methyltransferase 1; assay: Induction of thermal stabilization of N-terminal 6xHis-FLAG-tagged […] human DNMT1 (698 to 1616 residues) extracted from Sf9 cells assessed as change in melting temperature at 10 uM by SYPRO Orange dye based PTS assay (reference value: 0.0 degreeC); type: cell-based
[36] = Toxicity in BALB/c nude mouse xenografted with human MV4-11 cells assessed as animal fatality at 45 mg/kg, ip qd treated for 19 days; type: organism-based; settings: in vivo, 456 h, time 19 day
[37] = biological target: T1, DNA (cytosine-5)-methyltransferase 1; assay: Inhibition of DNMT1 in human MV4-11 cells at 1 uM incubated for 6 hrs in presence of MG132 by Western blot analysis; type: cell-based
[38] = Toxicity in immunodeficient BALB/c nude mouse allografted with mouse MC38 cells assessed as body weight loss at 30 mg/kg, ip qd for 15 days in presence of SAHA; type: organism-based, MC-38; settings: in vivo, 360 h, time 15 day

**Q.** With `CCc1c(C#N)c(SC(C(N)=O)c2ccccc2)nc(N2CCC(N)CC2)c1C#N` (stereo not drawn) as the compound, how does the Activity [1] read?
**A.** 6.43%

**Q.** And the inhibition in vivo at 30 mg/kg [2]?
**A.** 89%

**Q.** What about the Activity [3] of the same compound?
**A.** Active

**Q.** What about the inhibition [4] of the same compound?
**A.** Active

**Q.** What about the Activity [5] of the same compound?
**A.** Active

**Q.** And the Activity [6]?
**A.** Active

**Q.** And the inhibition [7]?
**A.** Active

**Q.** And the inhibition [8]?
**A.** Active

**Q.** What about the Activity [9] of the same compound?
**A.** Active

**Q.** What about the IC50 [10] of the same compound?
**A.** 0.4 µM

**Q.** What about the IC50 [11] of the same compound?
**A.** > 5 µM

**Q.** And the IC50 [12]?
**A.** 0.38 µM

**Q.** What about the Activity [13] of the same compound?
**A.** Active

**Q.** And the inhibition in vivo at 30 mg/kg [14]?
**A.** 24%

**Q.** What about the Activity [15] of the same compound?
**A.** Active

**Q.** What about the Activity [16] of the same compound?
**A.** Active

**Q.** And the Activity [17]?
**A.** Active

**Q.** And the Activity [18]?
**A.** Toxic

**Q.** And the inhibition [19]?
**A.** Active

**Q.** What about the Activity [20] of the same compound?
**A.** Active

**Q.** And the IC50 [21]?
**A.** 0.32 µM

**Q.** And the Activity [22]?
**A.** Active

**Q.** And the Activity [23]?
**A.** Toxic

**Q.** And the Activity [24]?
**A.** Active

**Q.** What about the IC50 at 4 days [25] of the same compound?
**A.** 0.8 µM

**Q.** What about the Activity [26] of the same compound?
**A.** Non-Toxic

**Q.** And the inhibition [27]?
**A.** inactive

**Q.** What about the inhibition [28] of the same compound?
**A.** Active

**Q.** What about the inhibition [29] of the same compound?
**A.** Active

**Q.** And the Activity [30]?
**A.** Active

**Q.** And the inhibition in vivo at 45 mg/kg [31]?
**A.** 93%

**Q.** And the Activity [32]?
**A.** Active

**Q.** What about the inhibition [33] of the same compound?
**A.** Active

**Q.** What about the Activity [34] of the same compound?
**A.** Active

**Q.** What about the ΔTm [35] of the same compound?
**A.** 8 °C

**Q.** And the Activity [36]?
**A.** Toxic

**Q.** And the inhibition [37]?
**A.** inactive

**Q.** What about the Activity [38] of the same compound?
**A.** Non-Toxic
